Assay results published in patent US4728509A, “Aqueous liquid preparation” (Takeda Chemical Industries, Ltd., priority 1985, dated 1988).
Converted amounts (≈) assume the structure as drawn. Where two headings read alike, the source gives them in different places.

Legend:
[1] = Solubility test of compound (a) with and without solubilizers (Experimental Example 1; HPLC of filtrate); settings: phosphate buffer, Solubility of Compound (a), 48 hours
Experimental: Solubility tests of the compound (a) (2-amino-7-isopropyl-5-oxo-5H-[1]-benzopyrano[2,3-b]pyridine-3-carboxylic acid) employing the solubilizers of this invention and, for comparison, employing various conventional solubilizers were performed.
The solubility was measured by the following manner:
An excess amount of the compound (a) was added to a given volume of a phosphate buffer, the mixture was sufficiently stirred, then the pH was adjusted to a given level, the mixture was allowed to stand at room temperature (25° C.) for 48 hours, the resultant was subjected to filtration with 0.45μ membrane filter, followed by measuring the concentration of the compound (a) in the filtrate by means of high performance liquid chromatography.

[2] = Stability test of compound (a) in solution, remaining ratio at 60° C. (Experimental Example 2); assay type: physicochemical; settings: phosphate buffer, pH 7.5±0.1; for remaining at 1344 h: 60° C. after 8 weeks
Experimental: The stability of the compound (a) was tested by the following manner.
At first, the stability of the compound (a) without any adjuvant was tested for comparison.
Two samples were prepared by dissolving 100 mg and 250 mg each portion of the compound (a) in phosphate buffer. To each of the solutions was added a solution of sodium hydroxide to adjust the pH to 7.5±0.1, followed by addition of purified water to make the whole volume 100 ml, provided that the solution of 2.5 mg/ml was prepared at 40° C. Each solution was filled in a glass bottle, which was stored at 60° C. for evaluation of the stability.
The results were shown in Table 2 as remaining ratio (%).
Next, the effect of improving the stability of the compound (a), when a solubilizer of this invention was added to the solution containing the compound (a), was examined.
To each sample was added a given amount of a solubilizer as specified in the table, followed by working up in a similar manner to the above (pH 7.5±0.1) for evaluation of the stability.
The results were shown in Table 3 as remaining ratio (%).

[3] = Solubility of compound (a); assay type: physicochemical

Compound `CC(C)c1ccc2oc3nc(N)c(C(=O)O)cc3c(=O)c2c1` [Compound (a), 2-amino-7-isopropyl-5-oxo-5H-[1]-benzopyrano[2,3-b]pyridine-3-carboxylic acid] has a solubility at 48 h ([1]; pH 6, aqueous buffer, Caffeine 5 mg/ml, pH 6.0, 25° C.) of 660 µg/mL (≈ 2.21 mM), a solubility at 48 h ([1]; pH 6, aqueous buffer, Caffeine 10 mg/ml, pH 6.0, 25° C.) of 1650 µg/mL (≈ 5.53 mM) and a solubility at 48 h ([1]; pH 6, aqueous buffer, Control, no solubilizer, pH 6.0, 25° C.) of 20 µg/mL (≈ 0.067 mM). It also gave a solubility at 48 h ([1]; pH 6, aqueous buffer, Polyvinylpyrrolidone (average molecular weight 40000) 10 mg/ml, pH 6.0, 25° C.) of 120 µg/mL (≈ 0.402 mM), a solubility at 48 h ([1]; pH 6, aqueous buffer, Polyvinylpyrrolidone (average molecular weight 40000) 50 mg/ml, pH 6.0, 25° C.) of 320 µg/mL (≈ 1.07 mM) and a solubility at 48 h ([1]; pH 6, aqueous buffer, Polyvinylpyrrolidone (average molecular weight 40000) 100 mg/ml, pH 6.0, 25° C.) of 1590 µg/mL (≈ 5.33 mM). The solubility at 48 h ([1]; pH 6, aqueous buffer, Sodium benzoate 20 mg/ml, pH 6.0, 25° C.) was 40 µg/mL (≈ 0.134 mM), the solubility at 48 h ([1]; pH 6, aqueous buffer, Tween 80 10 mg/ml, pH 6.0, 25° C.) was 80 µg/mL (≈ 0.268 mM) and the solubility at 48 h ([1]; pH 6, aqueous buffer, β-Cyclodextrin 10 mg/ml, pH 6.0, 25° C.) was 720 µg/mL (≈ 2.41 mM). The solubility at 48 h ([1]; pH 6.5, aqueous buffer, Caffeine 5 mg/ml, pH 6.5, 25° C.) was 1500 µg/mL (≈ 5.03 mM), the solubility at 48 h ([1]; pH 6.5, aqueous buffer, Caffeine 10 mg/ml, pH 6.5, 25° C.) was 2670 µg/mL (≈ 8.95 mM) and the solubility at 48 h ([1]; pH 6.5, aqueous buffer, Control, no solubilizer, pH 6.5, 25° C.) was 80 µg/mL (≈ 0.268 mM). For the same compound, the solubility at 48 h ([1]; pH 6.5, aqueous buffer, Isoniazid 10 mg/ml, pH 6.5, 25° C.) was 850 µg/mL (≈ 2.85 mM), the solubility at 48 h ([1]; pH 6.5, aqueous buffer, Nicotinic acid amide 10 mg/ml, pH 6.5, 25° C.) was 820 µg/mL (≈ 2.75 mM) and the solubility at 48 h ([1]; pH 6.5, aqueous buffer, Polyvinylpyrrolidone (average molecular weight 40000) 10 mg/ml, pH 6.5, 25° C.) was 420 µg/mL (≈ 1.41 mM). For the same compound, the solubility at 48 h ([1]; pH 6.5, aqueous buffer, Polyvinylpyrrolidone (average molecular weight 40000) 50 mg/ml, pH 6.5, 25° C.) was 1230 µg/mL (≈ 4.12 mM), the solubility at 48 h ([1]; pH 6.5, aqueous buffer, Polyvinylpyrrolidone (average molecular weight 40000) 100 mg/ml, pH 6.5, 25° C.) was 4630 µg/mL (≈ 15.5 mM) and the solubility at 48 h ([1]; pH 6.5, aqueous buffer, Sodium benzoate 20 mg/ml, pH 6.5, 25° C.) was 290 µg/mL (≈ 0.972 mM). The solubility at 48 h ([1]; pH 6.5, aqueous buffer, Tween 80 10 mg/ml, pH 6.5, 25° C.) was 470 µg/mL (≈ 1.58 mM), the solubility at 48 h ([1]; pH 6.5, aqueous buffer, β-Cyclodextrin 10 mg/ml, pH 6.5, 25° C.) was 1400 µg/mL (≈ 4.69 mM) and the solubility at 48 h ([1]; pH 7, aqueous buffer, Caffeine 5 mg/ml, pH 7.0, 25° C.) was 3720 µg/mL (≈ 12.5 mM). It also gave a solubility at 48 h ([1]; pH 7, aqueous buffer, Caffeine 10 mg/ml, pH 7.0, 25° C.) of 7050 µg/mL (≈ 23.6 mM), a solubility at 48 h ([1]; pH 7, aqueous buffer, Control, no solubilizer, pH 7.0, 25° C.) of 330 µg/mL (≈ 1.11 mM) and a solubility at 48 h ([1]; pH 7, aqueous buffer, Isoniazid 10 mg/ml, pH 7.0, 25° C.) of 1330 µg/mL (≈ 4.46 mM). For the same compound, the solubility at 48 h ([1]; pH 7, aqueous buffer, Nicotinic acid amide 10 mg/ml, pH 7.0, 25° C.) was 1210 µg/mL (≈ 4.06 mM), the solubility at 48 h ([1]; pH 7, aqueous buffer, Polyvinylpyrrolidone (average molecular weight 40000) 10 mg/ml, pH 7.0, 25° C.) was 1060 µg/mL (≈ 3.55 mM) and the solubility at 48 h ([1]; pH 7, aqueous buffer, Polyvinylpyrrolidone (average molecular weight 40000) 50 mg/ml, pH 7.0, 25° C.) was 3230 µg/mL (≈ 10.8 mM). It also gave a solubility at 48 h ([1]; pH 7, aqueous buffer, Polyvinylpyrrolidone (average molecular weight 40000) 100 mg/ml, pH 7.0, 25° C.) of 10000 µg/mL (≈ 33.7 mM), a solubility at 48 h ([1]; pH 7, aqueous buffer, Sodium benzoate 20 mg/ml, pH 7.0, 25° C.) of 420 µg/mL (≈ 1.41 mM) and a solubility at 48 h ([1]; pH 7, aqueous buffer, β-Cyclodextrin 10 mg/ml, pH 7.0, 25° C.) of 2300 µg/mL (≈ 7.71 mM). It also gave a solubility at 48 h ([1]; pH 7.5, aqueous buffer, Caffeine 5 mg/ml, pH 7.5, 25° C.) of 7440 µg/mL (≈ 24.9 mM), a solubility at 48 h ([1]; pH 7.5, aqueous buffer, Caffeine 10 mg/ml, pH 7.5, 25° C.) of 9210 µg/mL (≈ 30.9 mM) and a solubility at 48 h ([1]; pH 7.5, aqueous buffer, Control, no solubilizer, pH 7.5, 25° C.) of 1050 µg/mL (≈ 3.52 mM). It also gave a solubility at 48 h ([1]; pH 7.5, aqueous buffer, Isoniazid 10 mg/ml, pH 7.5, 25° C.) of 1560 µg/mL (≈ 5.23 mM), a solubility at 48 h ([1]; pH 7.5, aqueous buffer, Nicotinic acid amide 10 mg/ml, pH 7.5, 25° C.) of 1530 µg/mL (≈ 5.13 mM) and a solubility at 48 h ([1]; pH 7.5, aqueous buffer, Polyvinylpyrrolidone (average molecular weight 40000) 10 mg/ml, pH 7.5, 25° C.) of 3150 µg/mL (≈ 10.6 mM). The solubility at 48 h ([1]; pH 7.5, aqueous buffer, Polyvinylpyrrolidone (average molecular weight 40000) 50 mg/ml, pH 7.5, 25° C.) was 10400 µg/mL (≈ 34.7 mM), the solubility at 48 h ([1]; pH 7.5, aqueous buffer, Polyvinylpyrrolidone (average molecular weight 40000) 100 mg/ml, pH 7.5, 25° C.) was 18500 µg/mL (≈ 61.9 mM) and the solubility at 48 h ([1]; pH 7.5, aqueous buffer, Sodium benzoate 20 mg/ml, pH 7.5, 25° C.) was 1060 µg/mL (≈ 3.55 mM). For the same compound, the solubility at 48 h ([1]; pH 7.5, aqueous buffer, Tween 80 10 mg/ml, pH 7.5, 25° C.) was 1180 µg/mL (≈ 3.96 mM), the solubility at 48 h ([1]; pH 7.5, aqueous buffer, β-Cyclodextrin 10 mg/ml, pH 7.5, 25° C.) was 4390 µg/mL (≈ 14.7 mM) and the remaining at 168 h ([2]; pH 7.5, compound (a) 1.0 mg/ml, PVP (MW 40,000) 20 mg/ml, 60° C. after 1 week) was 99.5%. For the same compound, the remaining at 336 h ([2]; pH 7.5, compound (a) 1.0 mg/ml, PVP (MW 40,000) 20 mg/ml, 60° C. after 2 weeks) was 99.2%, the remaining at 672 h ([2]; pH 7.5, compound (a) 1.0 mg/ml, PVP (MW 40,000) 20 mg/ml, 60° C. after 4 weeks) was 98.4% and the remaining at 1344 h ([2]; pH 7.5, compound (a) 1.0 mg/ml, PVP (MW 40,000) 20 mg/ml) was 98.1%. For the same compound, the remaining at 168 h ([2]; pH 7.5, compound (a) 2.5 mg/ml, PVP (MW 40,000) 50 mg/ml, 60° C. after 1 week) was 98.9%, the remaining at 336 h ([2]; pH 7.5, compound (a) 2.5 mg/ml, PVP (MW 40,000) 50 mg/ml, 60° C. after 2 weeks) was 99.5% and the remaining at 672 h ([2]; pH 7.5, compound (a) 2.5 mg/ml, PVP (MW 40,000) 50 mg/ml, 60° C. after 4 weeks) was 99.1%. For the same compound, the remaining at 1344 h ([2]; pH 7.5, compound (a) 2.5 mg/ml, PVP (MW 40,000) 50 mg/ml) was 97%, the remaining at 168 h ([2]; pH 7.5, compound (a) 5.0 mg/ml, PVP (MW 40,000) 10 mg/ml + caffeine 10 mg/ml, 60° C. after 1 week) was 98.9% and the remaining at 336 h ([2]; pH 7.5, compound (a) 5.0 mg/ml, PVP (MW 40,000) 10 mg/ml + caffeine 10 mg/ml, 60° C. after 2 weeks) was 99.5%. For the same compound, the remaining at 672 h ([2]; pH 7.5, compound (a) 5.0 mg/ml, PVP (MW 40,000) 10 mg/ml + caffeine 10 mg/ml, 60° C. after 4 weeks) was 98.1%, the remaining at 1344 h ([2]; pH 7.5, compound (a) 5.0 mg/ml, PVP (MW 40,000) 10 mg/ml + caffeine 10 mg/ml) was 98.2% and the remaining at 168 h ([2]; pH 7.5, compound (a) 10.0 mg/ml, PVP (MW 40,000) 50 mg/ml + β-CD 10 mg/ml, 60° C. after 1 week) was 98.7%. The remaining at 336 h ([2]; pH 7.5, compound (a) 10.0 mg/ml, PVP (MW 40,000) 50 mg/ml + β-CD 10 mg/ml, 60° C. after 2 weeks) was 100%, the remaining at 672 h ([2]; pH 7.5, compound (a) 10.0 mg/ml, PVP (MW 40,000) 50 mg/ml + β-CD 10 mg/ml, 60° C. after 4 weeks) was 98.3% and the remaining at 1344 h ([2]; pH 7.5, compound (a) 10.0 mg/ml, PVP (MW 40,000) 50 mg/ml + β-CD 10 mg/ml) was 97.3%. It also gave a remaining at 672 h ([2]; pH 7.5, no adjuvant, compound (a) 1.0 mg/ml, 60° C. after four weeks) of 85.4%, a remaining at 168 h ([2]; pH 7.5, no adjuvant, compound (a) 1.0 mg/ml, 60° C. after one week) of 99.2% and a remaining at 336 h ([2]; pH 7.5, no adjuvant, compound (a) 1.0 mg/ml, 60° C. after two weeks) of 97.2%. For the same compound, the remaining at 672 h ([2]; pH 7.5, no adjuvant, compound (a) 2.5 mg/ml, 60° C. after four weeks) was 66.8%, the remaining at 168 h ([2]; pH 7.5, no adjuvant, compound (a) 2.5 mg/ml, 60° C. after one week) was 92.1% and the remaining at 336 h ([2]; pH 7.5, no adjuvant, compound (a) 2.5 mg/ml, 60° C. after two weeks) was 80.5%. The “amount of compound (a) dissolved by the aqueous liquid preparation of this invention” value ([3]; aqueous liquid preparation of this invention, pH 7.2-7.8) was ≥ 3 mg/mL, the solubility ([3]; neutral to alkaline region (pH 7.2-7.8), read-out: solubility) was ~1100 µg/mL (≈ 3.69 mM) and the solubility ([3]; water, 25° C., read-out: solubility in water) was ~10 µg/mL (≈ 0.0335 mM). The solubility ([3]; water, pH 7.5, cold chamber (5° C.), read-out: solubility in water) was 300 µg/mL (≈ 1.01 mM).
